pIC50, pKd, pKi: −log10 of the molar value.
Assays:
[1] = biological target: T1, Receptor-interacting serine/threonine-protein kinase 2 (Homo sapiens, UniProt O43353); assay: Binding affinity to biotinylated human RIPK2 (1 to 310 residues) expressed in Escherichia coli incubated for 1.5 hrs by fluorescent tracer dependent TR-FRET based competitive ligand binding displacement assay
[2] = biological target: Atypical kinase COQ8A, mitochondrial (Homo sapiens, UniProt Q8NI60); assay: Binding affinity to biotinylated full length human ADCK3 expressed in Escherichia coli incubated for 1.5 hrs by fluorescent tracer dependent TR-FRET based competitive ligand binding displacement assay
Sequence of Atypical kinase COQ8A, mitochondrial (Q8NI60 whole entry): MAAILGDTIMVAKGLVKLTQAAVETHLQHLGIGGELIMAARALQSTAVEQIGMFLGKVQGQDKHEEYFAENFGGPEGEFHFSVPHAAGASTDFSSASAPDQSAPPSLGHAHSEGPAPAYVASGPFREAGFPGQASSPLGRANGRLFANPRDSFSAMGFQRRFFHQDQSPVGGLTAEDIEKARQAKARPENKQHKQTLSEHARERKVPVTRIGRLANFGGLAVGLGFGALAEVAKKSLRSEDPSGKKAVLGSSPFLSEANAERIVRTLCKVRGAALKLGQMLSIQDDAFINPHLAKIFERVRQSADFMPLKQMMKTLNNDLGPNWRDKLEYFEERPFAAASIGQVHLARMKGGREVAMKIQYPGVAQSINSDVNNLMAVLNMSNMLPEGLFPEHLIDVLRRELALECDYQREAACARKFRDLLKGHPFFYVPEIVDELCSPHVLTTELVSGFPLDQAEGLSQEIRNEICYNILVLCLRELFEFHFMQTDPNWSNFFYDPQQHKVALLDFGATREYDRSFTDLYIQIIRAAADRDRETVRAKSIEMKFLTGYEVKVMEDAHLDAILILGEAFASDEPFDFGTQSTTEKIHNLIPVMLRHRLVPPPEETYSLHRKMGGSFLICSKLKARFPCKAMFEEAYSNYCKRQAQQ

[3] = biological target: T2, Serine/threonine-protein kinase NLK (Homo sapiens, UniProt Q9UBE8); assay: Binding affinity to biotinylated full length human NLK expressed in Escherichia coli incubated for 1.5 hrs by fluorescent tracer dependent TR-FRET based competitive ligand binding displacement assay
T2 sequence (Q9UBE8 whole entry): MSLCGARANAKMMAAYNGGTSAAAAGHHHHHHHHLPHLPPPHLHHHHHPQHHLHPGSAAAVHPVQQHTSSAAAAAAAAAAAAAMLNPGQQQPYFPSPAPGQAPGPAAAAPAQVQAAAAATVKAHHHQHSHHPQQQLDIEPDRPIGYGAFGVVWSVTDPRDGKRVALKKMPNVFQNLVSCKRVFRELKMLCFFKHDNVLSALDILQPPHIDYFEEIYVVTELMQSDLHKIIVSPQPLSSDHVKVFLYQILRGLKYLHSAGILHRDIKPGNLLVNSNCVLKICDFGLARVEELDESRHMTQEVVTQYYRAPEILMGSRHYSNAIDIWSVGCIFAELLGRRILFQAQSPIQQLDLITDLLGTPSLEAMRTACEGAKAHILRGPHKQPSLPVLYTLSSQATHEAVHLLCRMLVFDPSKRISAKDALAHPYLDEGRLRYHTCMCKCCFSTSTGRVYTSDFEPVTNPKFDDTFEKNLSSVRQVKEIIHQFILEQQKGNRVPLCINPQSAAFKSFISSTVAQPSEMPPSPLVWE

[4] = biological target: T3, Cyclin-G-associated kinase (Homo sapiens, UniProt O14976); assay: Binding affinity to biotinylated human GAK (13 to 338 residues) expressed in Escherichia coli incubated for 1.5 hrs by fluorescent tracer dependent TR-FRET based competitive ligand binding displacement assay
T3 sequence (O14976 whole entry): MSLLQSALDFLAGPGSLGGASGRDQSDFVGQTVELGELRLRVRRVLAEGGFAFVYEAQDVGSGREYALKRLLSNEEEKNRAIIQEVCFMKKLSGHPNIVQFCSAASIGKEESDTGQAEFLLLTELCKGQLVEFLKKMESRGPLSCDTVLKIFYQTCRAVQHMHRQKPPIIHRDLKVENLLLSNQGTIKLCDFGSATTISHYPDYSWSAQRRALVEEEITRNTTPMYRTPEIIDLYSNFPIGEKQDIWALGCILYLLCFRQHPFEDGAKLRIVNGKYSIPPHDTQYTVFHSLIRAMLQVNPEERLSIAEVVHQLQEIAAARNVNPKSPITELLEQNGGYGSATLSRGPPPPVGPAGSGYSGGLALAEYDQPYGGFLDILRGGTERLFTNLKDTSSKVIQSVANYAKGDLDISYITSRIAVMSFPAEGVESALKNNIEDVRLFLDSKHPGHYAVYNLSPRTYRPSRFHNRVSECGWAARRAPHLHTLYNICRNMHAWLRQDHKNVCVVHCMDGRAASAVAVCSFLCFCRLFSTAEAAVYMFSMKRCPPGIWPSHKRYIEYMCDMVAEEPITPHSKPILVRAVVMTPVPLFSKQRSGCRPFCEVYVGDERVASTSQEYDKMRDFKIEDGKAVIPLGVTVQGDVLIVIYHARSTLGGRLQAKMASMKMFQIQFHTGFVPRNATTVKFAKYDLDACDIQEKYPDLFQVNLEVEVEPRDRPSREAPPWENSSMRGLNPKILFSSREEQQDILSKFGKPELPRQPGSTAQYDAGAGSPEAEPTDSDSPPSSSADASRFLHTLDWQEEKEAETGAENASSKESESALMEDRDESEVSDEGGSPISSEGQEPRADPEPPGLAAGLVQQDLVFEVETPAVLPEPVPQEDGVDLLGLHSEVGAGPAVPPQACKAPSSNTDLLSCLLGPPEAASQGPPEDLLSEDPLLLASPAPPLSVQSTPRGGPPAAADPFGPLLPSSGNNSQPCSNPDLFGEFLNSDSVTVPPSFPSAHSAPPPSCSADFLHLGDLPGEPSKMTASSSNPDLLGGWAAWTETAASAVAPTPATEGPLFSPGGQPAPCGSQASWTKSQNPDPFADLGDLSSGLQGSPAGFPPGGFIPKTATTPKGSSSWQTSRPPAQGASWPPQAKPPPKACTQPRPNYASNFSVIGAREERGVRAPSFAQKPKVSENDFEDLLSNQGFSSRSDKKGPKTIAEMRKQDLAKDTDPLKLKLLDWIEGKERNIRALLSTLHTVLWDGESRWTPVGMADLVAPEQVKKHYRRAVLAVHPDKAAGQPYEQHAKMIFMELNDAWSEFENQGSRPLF

CWR22R = assay: Cytotoxicity against human 22Rv1 cells after 72 hrs by MTS assay; format: functional, cell-based; conditions: 22Rv1, 72 h
[5] = biological target: T4, Interleukin-1 receptor-associated kinase 3 (Homo sapiens, UniProt Q9Y616); assay: Binding affinity to human IRAK3 (147 to 596 residues) expressed in bacterial expression system by KINOMEscan assay
T4 sequence (Q9Y616 whole entry): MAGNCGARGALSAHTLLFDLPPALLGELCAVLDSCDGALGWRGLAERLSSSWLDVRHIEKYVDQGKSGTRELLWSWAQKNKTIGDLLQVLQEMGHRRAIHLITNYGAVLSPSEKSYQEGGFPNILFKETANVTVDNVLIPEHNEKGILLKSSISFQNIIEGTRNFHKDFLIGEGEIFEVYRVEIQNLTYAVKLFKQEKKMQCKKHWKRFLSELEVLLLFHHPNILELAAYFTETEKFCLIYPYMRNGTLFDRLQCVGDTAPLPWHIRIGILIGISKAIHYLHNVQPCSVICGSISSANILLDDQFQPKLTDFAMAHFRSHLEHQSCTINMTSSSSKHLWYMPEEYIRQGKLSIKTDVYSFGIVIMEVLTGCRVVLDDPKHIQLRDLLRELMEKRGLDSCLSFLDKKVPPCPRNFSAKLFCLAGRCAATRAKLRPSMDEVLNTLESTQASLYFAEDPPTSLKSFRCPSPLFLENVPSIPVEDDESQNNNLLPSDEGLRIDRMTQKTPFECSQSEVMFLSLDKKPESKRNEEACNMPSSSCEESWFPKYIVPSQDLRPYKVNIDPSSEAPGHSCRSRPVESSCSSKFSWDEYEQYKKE

[6] = biological target: AP2-associated protein kinase 1 (Homo sapiens, UniProt Q2M2I8); assay: Binding affinity to C-terminal AVI-tagged AAK1 (unknown origin) (31 to 396 residues) expressed in Escherichia coli after 1.5 hrs by TR-FRET assay
Sequence of AP2-associated protein kinase 1 (Q2M2I8 whole entry, the tested form may be a part): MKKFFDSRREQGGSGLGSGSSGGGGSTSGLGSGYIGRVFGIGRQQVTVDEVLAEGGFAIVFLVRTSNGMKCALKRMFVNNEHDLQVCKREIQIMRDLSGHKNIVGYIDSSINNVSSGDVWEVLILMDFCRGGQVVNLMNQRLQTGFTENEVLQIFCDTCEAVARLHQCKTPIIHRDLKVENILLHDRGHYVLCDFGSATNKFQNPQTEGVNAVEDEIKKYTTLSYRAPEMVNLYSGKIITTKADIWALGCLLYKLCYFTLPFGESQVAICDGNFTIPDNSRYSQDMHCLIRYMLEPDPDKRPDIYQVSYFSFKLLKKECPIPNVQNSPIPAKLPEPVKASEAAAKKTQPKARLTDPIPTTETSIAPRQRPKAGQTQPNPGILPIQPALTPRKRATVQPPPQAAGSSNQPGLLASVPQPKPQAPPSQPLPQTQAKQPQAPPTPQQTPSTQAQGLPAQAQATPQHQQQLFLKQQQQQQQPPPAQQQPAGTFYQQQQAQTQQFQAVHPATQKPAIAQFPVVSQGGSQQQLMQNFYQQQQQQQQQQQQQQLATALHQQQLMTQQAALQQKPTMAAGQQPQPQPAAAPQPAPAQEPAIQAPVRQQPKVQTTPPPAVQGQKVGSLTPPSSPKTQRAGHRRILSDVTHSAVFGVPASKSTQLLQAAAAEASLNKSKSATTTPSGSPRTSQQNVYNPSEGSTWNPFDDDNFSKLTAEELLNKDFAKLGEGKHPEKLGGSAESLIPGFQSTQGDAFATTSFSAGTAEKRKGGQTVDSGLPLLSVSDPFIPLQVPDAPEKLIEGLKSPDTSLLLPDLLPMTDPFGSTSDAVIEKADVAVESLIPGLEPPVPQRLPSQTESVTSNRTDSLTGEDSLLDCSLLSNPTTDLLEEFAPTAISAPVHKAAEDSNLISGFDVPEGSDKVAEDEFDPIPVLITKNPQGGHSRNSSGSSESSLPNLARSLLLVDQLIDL

[7] = biological target: BMP-2-inducible protein kinase (Homo sapiens, UniProt Q9NSY1); assay: Binding affinity to C-terminal AVI-tagged BMP2K (unknown origin) (38 to 345 residues) expressed in Escherichia coli after 1.5 hrs by TR-FRET assay
Sequence of BMP-2-inducible protein kinase (Q9NSY1 whole entry, the tested form may be a part): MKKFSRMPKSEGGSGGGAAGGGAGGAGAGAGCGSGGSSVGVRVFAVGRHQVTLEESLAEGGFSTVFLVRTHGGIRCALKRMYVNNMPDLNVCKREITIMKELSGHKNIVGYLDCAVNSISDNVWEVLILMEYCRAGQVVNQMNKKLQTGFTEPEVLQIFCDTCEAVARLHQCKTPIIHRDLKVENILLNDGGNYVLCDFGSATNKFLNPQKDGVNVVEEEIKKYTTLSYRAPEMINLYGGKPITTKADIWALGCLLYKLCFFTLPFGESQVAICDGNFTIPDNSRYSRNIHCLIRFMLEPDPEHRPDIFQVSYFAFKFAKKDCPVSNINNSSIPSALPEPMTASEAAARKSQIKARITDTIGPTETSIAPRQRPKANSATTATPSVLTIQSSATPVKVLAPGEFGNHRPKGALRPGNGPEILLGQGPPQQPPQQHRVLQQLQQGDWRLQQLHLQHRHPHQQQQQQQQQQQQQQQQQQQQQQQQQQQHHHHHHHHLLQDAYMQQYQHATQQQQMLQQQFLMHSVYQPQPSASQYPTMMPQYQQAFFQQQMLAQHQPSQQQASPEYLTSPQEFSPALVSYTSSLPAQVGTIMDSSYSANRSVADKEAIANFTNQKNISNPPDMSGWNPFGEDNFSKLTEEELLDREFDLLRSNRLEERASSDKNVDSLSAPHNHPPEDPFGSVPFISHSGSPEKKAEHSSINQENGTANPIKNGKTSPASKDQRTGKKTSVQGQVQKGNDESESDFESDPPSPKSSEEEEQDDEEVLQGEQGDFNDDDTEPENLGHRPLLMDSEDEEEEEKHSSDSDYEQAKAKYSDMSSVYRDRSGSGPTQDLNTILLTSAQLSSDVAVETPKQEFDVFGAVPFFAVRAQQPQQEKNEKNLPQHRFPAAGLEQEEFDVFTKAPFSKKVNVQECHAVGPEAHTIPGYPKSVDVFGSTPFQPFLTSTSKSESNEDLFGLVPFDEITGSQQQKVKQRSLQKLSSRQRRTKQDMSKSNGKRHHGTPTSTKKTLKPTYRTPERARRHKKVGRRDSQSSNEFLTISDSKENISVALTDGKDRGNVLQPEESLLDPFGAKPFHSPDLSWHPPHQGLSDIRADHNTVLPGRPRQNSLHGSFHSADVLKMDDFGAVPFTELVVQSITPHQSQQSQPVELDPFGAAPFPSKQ

[8] = biological target: Serine/threonine-protein kinase 16 (Homo sapiens, UniProt O75716); assay: Binding affinity to C-terminal AVI-tagged STK16 (unknown origin) (13 to 305 residues) expressed in Escherichia coli after 1.5 hrs by TR-FRET assay
Sequence of Serine/threonine-protein kinase 16 (O75716 whole entry, the tested form may be a part): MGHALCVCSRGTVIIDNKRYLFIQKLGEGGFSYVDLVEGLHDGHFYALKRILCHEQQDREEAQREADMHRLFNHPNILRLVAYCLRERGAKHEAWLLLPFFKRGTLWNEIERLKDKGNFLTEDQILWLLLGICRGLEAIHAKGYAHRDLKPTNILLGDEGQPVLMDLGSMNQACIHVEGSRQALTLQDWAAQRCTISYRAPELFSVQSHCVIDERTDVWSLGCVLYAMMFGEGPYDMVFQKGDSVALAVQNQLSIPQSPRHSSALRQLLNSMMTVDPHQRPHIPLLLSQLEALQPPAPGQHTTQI

[9] = biological target: T5, Cyclin-G-associated kinase (Homo sapiens) (UniProt O14976)
T5 sequence (whole entry): T3 sequence (O14976 whole entry)
Description: Binding affinity to GAK (unknown origin) assessed as change in melting temperature by DSF assay

[10] = biological target: T3, Cyclin-G-associated kinase
LNCaP = assay: Cytotoxicity against human LNCAP cells after 72 hrs by MTS assay; format: functional, cell-based
[11] = biological target: T3, Cyclin-G-associated kinase; assay: Binding affinity to GAK (unknown origin)
[12] = biological target: T1, Receptor-interacting serine/threonine-protein kinase 2; assay: Displacement of fluorescent tracer from N-terminus of human RIPK2 expressed in HEK293T cells after 2 hrs by NanoBRET target engagement assay; format: cell-based
[13] = biological target: T3, Cyclin-G-associated kinase; assay: Displacement of fluorescent tracer from N-terminus of human GAK expressed in HEK293T cells after 2 hrs by NanoBRET target engagement assay; format: cell-based
[14] = biological target: T5, Cyclin-G-associated kinase (Homo sapiens); assay: Binding affinity to biotinylated human GAK (13 to 338 residues) expressed in Escherichia coli at 1 uM incubated for 1.5 hrs by fluorescent tracer dependent TR-FRET based competitive ligand binding displacement assay

T1 sequence (O43353 whole entry, the tested form may be a part): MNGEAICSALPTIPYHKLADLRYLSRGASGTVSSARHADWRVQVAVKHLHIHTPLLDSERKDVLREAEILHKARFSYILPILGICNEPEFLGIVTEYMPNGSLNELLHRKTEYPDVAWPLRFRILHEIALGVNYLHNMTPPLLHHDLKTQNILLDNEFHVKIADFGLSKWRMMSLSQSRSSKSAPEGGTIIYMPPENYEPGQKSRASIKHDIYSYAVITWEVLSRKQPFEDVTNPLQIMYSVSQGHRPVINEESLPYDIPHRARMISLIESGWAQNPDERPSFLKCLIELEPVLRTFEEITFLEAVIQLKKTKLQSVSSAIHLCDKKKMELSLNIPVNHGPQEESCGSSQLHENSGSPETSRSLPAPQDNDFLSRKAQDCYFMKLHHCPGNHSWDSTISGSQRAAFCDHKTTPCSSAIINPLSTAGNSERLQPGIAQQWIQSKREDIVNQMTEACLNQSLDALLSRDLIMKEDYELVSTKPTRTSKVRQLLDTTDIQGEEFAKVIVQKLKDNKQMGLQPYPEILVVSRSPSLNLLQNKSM

Row | pKd [1] | pKd [2] | pKd [3] | pKd [4] | pKi [10] | Structure (SMILES) | also measured
1 | 6.17 | 6.13 | 6.46 | 7.60 |  | COc1cc(Nc2ccnc3ccc(C(C)(C)C)cc23)cc(OC)c1OC | 
2 |  |  |  |  | 5.60 | COc1cc(N(C)c2ccnc3ccc(C(F)(F)F)cc23)cc(OC)c1OC | pIC50 (CWR22R): < 4.00; pKd [5]: 6.13; pKi [6]: 4.11; pKi [7]: 4.02; pKi [8]: 4.82; ΔTm [9]: -0.3 °C; pIC50 (LNCaP): < 4.00
3 |  |  |  |  |  | COc1cc(-c2cnc3c(N4CCOCC4)snc3c2)cc(OC)c1OC | pKd [11]: 8.05
4 | 6.77 | 5.70 | 5.59 | 7.68 |  | COc1ccc2nccc(Nc3cc(OC)c(OC)c(OC)c3)c2c1 | 
5 | 5.54 | 5.39 | 5.21 | 7.23 |  | COc1cc(Nc2ccnc3ccccc23)cc(OC)c1OC | 
6 |  |  |  |  | 5.09 | CC(C)(C)S(=O)(=O)c1cc2c(Nc3ccc4scnc4c3)ncnc2cc1OCCO | pIC50 [12]: 8.70; pIC50 [13]: < 5.00
7 |  |  |  |  | 8.42 | Clc1cc2cc(c1)-c1cnn3ccc(nc13)NCCOCCO2 | pIC50 [12]: 7.96; pIC50 [13]: 7.22
8 | 6.70 | 5.92 | 6.15 | 7.77 |  | COc1ccc2c(Nc3cc(OC)c(OC)c(OC)c3)ccnc2c1 | 
9 |  |  | 6.10 |  |  | COc1cc(Nc2ccnc3ccc(C(F)(F)F)cc23)cc(OC)c1OC | Activity [14]: > 50%
10 |  |  |  |  | 4.72 | COc1cc(Nc2cc(C)nc3ccc(C(F)(F)F)cc23)cc(OC)c1OC | pKi [6]: < 4.00; pKi [7]: < 4.00; pKi [8]: < 4.00; ΔTm [9]: -0.52 °C
11 | 7.02 | 7.18 | 7.55 | 8.01 |  | COc1cc(Nc2ccnc3cc(C#N)ccc23)cc(OC)c1OC | 
12 | 7.06 | 6.77 | 7.54 | 8.41 |  | COc1cc(Nc2ccnc3ccc(C#N)cc23)cc(OC)c1OC | 
13 | 7.16 | 6.72 | 6.18 | 8.10 |  | COc1cc(Nc2ccnc3ccc(I)cc23)cc(OC)c1OC | 
14 |  |  |  |  | 6.66 | CC(C)(C)S(=O)(=O)c1ccc2nccc(Nc3n[nH]c4ccc(F)cc34)c2c1 | 
15 |  |  |  |  | 7.31 | Cc1[nH]nc(Nc2ncnc3cc(OCCO)c(S(=O)(=O)C(C)(C)C)cc23)c1C | 
16 | 6.96 | 6.72 | 6.28 |  |  | COc1cc(Nc2ccnc3ccc(Br)cc23)cc(OC)c1OC | pIC50 (CWR22R): 6.77; pIC50 [12]: 6.44; pKi [7]: < 4.00; ΔTm [9]: 7.7 °C; pIC50 (LNCaP): 6.19
17 | 7.38 | 6.60 | 6.39 | 8.54 |  | COc1cc2nccc(Nc3cc(OC)c(OC)c(OC)c3)c2cc1OC | 

Row | Structure (SMILES) | pKd [1] | pKd [2] | pKd [3] | pKd [4] | pKi [10] | also measured
18 | COc1cc(Nc2ccnc3ccc(Cl)cc23)cc(OC)c1OC | 7.07 | 6.77 | 6.19 | 8.17 |  | 
